Assay results published in ChEMBL document CHEMBL1201862, “PubChem BioAssay data set” (2004).
Each block holds one molecule with its values, some of them ahead of it. The source made the active and inactive calls.

Columns and labels:
[1] = biological target: T1, Sentrin-specific protease 6 (Homo sapiens, UniProt Q9GZR1); assay: SAR Analysis of small molecule inhibitors of Sentrin-specific protease 6 (SENP6) using a Luminescent assay. [Related pubchem assays (depositor defined):AID2582, AID2599]; assay type: functional
T1 sequence (Q9GZR1 whole entry): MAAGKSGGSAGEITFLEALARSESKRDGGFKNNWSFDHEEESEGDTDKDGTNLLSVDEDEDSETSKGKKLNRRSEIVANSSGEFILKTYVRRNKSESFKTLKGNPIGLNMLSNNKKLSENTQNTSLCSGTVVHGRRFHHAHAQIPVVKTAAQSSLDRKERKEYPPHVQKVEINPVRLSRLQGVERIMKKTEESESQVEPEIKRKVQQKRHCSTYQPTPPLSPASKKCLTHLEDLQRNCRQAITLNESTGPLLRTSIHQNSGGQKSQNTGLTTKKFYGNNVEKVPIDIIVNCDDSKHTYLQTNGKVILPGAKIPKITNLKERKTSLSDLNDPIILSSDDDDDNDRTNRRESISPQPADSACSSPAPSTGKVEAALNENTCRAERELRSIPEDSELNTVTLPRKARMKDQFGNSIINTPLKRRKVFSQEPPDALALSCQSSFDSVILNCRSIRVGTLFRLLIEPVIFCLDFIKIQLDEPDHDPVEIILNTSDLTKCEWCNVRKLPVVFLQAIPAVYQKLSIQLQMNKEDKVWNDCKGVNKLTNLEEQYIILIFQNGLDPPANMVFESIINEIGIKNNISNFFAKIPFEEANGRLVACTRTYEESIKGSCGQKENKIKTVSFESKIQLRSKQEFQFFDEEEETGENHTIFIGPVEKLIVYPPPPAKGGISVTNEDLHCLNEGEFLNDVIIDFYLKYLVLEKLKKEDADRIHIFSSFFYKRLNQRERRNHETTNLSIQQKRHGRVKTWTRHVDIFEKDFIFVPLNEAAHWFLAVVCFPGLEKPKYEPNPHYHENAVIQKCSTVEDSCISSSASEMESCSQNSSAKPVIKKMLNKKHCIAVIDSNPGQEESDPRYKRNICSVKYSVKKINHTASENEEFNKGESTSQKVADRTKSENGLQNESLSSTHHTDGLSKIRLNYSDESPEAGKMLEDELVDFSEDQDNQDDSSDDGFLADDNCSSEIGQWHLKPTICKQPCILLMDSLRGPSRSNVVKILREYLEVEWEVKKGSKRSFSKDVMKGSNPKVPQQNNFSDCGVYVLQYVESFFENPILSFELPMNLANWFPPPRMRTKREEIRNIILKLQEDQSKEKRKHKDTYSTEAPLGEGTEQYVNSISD

[2] = biological target: T2, Sentrin-specific protease 8 (Homo sapiens, UniProt Q96LD8); assay: inhibition of human SENP8 cleavage activity – biochemical, luminescence, SAR follow-up (AID 504501); assay type: functional
T2 sequence (Q96LD8 whole entry): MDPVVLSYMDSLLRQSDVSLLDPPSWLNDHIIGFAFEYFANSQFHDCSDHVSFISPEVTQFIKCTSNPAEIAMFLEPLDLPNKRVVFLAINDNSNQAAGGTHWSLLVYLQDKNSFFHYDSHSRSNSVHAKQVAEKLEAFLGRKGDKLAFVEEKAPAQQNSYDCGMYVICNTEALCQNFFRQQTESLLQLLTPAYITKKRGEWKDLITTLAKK

[3] = biological target: T3, Sentrin-specific protease 7 (Homo sapiens, UniProt Q9BQF6); assay: inhibition of human SENP7 cleavage activity – biochemical, luminescence, SAR follow-up (AID 504497); assay type: functional
T3 sequence (Q9BQF6 whole entry): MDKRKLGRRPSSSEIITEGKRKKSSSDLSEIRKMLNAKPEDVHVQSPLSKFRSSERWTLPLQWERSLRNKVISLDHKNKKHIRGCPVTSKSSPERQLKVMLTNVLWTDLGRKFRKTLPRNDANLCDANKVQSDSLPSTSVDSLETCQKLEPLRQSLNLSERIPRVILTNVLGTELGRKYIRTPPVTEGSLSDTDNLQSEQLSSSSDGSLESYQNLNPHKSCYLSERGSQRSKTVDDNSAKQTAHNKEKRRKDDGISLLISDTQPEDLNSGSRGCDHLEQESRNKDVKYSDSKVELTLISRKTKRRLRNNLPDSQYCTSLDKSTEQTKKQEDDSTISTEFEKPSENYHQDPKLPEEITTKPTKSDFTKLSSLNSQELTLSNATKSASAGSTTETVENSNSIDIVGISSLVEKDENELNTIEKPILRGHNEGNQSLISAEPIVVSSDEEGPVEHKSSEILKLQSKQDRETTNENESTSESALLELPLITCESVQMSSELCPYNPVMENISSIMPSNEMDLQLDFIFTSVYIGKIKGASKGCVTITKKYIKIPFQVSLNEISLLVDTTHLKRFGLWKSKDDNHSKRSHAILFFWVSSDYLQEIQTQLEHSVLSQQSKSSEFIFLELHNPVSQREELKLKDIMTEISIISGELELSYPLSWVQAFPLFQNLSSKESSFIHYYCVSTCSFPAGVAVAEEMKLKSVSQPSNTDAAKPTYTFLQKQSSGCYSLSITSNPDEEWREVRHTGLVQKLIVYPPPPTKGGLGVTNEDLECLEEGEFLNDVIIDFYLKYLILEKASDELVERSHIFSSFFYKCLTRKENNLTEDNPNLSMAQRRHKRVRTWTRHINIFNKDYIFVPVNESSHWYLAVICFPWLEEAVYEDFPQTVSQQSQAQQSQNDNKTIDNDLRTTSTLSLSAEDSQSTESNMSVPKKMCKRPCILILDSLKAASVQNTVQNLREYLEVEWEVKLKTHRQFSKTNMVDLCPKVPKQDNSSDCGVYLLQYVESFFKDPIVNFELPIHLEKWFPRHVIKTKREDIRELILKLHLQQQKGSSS

Caspase-3 [4] = biological target: T4, Caspase-3 (Homo sapiens, UniProt P42574); assay: SAR Analysis of small molecule inhibitors of Sentrin-specific proteases (SENPs) using a Caspase-3 Selectivity assay. [Related pubchem assays (depositor defined):AID2540, AID2599, AID434973, AID489001]; assay type: functional
T4 sequence (P42574 whole entry): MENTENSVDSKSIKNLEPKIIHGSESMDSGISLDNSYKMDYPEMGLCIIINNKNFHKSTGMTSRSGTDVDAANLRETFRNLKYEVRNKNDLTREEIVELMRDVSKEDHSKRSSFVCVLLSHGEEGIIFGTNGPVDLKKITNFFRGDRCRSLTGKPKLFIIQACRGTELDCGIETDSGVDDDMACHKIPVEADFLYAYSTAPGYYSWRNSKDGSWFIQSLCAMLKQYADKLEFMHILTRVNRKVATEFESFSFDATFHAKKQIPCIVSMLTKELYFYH

SN12K1 = assay: cells; assay type: functional; conditions: Homo sapiens
P388/ADR = assay: cells; assay type: functional; conditions: Mus musculus
P388 = assay: cells; assay type: functional; conditions: Mus musculus
[5] = biological target: T5, Apoptotic protease-activating factor 1 (Homo sapiens, UniProt O14727); assay: SAR analysis of small molecule Activators of Apaf-1 in a Fluorescent assay.; assay type: functional; conditions: read-out: EC50_Mean;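 note: caspase-3 cleavage of fluorogenic Rh110 DEVD substrate downstream of apoptosome activation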
T5 sequence (O14727 whole entry): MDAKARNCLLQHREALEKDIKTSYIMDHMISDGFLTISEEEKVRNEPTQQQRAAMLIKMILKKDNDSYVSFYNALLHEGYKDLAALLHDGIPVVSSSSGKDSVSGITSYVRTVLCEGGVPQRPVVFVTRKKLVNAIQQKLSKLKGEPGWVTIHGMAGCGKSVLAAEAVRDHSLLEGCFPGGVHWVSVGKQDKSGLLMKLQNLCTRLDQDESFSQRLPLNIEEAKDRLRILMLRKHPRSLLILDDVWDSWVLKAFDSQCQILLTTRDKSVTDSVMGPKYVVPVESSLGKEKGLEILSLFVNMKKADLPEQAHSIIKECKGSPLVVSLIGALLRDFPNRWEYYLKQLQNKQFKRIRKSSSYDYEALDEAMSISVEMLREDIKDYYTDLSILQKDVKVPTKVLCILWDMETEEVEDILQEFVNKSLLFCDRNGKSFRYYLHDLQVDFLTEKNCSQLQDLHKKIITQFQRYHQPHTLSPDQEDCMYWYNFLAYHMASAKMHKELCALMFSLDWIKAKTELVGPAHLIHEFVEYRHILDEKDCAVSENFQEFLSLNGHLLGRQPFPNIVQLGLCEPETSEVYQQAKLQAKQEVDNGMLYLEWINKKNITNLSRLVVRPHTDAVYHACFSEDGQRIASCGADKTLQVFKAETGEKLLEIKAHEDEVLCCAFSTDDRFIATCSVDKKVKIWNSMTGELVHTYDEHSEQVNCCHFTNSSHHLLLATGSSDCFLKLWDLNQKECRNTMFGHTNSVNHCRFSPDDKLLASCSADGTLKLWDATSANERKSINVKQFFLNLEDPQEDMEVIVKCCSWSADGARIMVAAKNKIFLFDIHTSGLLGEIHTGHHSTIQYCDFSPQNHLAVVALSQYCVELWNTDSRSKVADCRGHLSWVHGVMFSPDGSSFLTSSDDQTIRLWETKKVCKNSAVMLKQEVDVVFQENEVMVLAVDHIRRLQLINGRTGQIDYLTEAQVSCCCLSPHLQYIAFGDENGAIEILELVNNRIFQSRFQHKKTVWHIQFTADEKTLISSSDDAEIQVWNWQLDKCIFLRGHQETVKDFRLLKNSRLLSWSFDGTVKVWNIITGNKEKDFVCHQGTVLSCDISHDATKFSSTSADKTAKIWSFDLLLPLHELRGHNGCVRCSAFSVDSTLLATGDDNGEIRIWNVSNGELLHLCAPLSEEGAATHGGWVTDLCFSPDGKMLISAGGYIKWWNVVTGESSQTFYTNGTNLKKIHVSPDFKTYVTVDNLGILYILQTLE

[6] = biological target: T1, Sentrin-specific protease 6; assay: inhibition of human SENP6 catalytic domain – biochemical, luminescence, set 2, SAR follow-up (AID 588598); assay type: functional
[7] = biological target: T2, Sentrin-specific protease 8; assay: inhibition of sentrin protease 8 – biochemical, luminescence, set 2, SAR follow-up (AID 588601); assay type: functional
[8] = biological target: T3, Sentrin-specific protease 7; assay: inhibition of human SENP7 cleavage activity – biochemical, luminescence, set 2, SAR follow-up (AID 588600); assay type: functional
[9] = Trypanosoma cruzi growth suppression in host cells – NIH3T3 host cells, beta-gal luminescence, confirmation (AID 2044); assay type: functional, cell-based;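 note: intracellular parasites grown in NIH/3T3 mouse fibroblasts as host cells; luminescent beta-galactosidase reporter signal from transgenic T. cruzi replicating inside host cells; inhibitors lower the luminescence signal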
Caspase-3 [10] = biological target: T4, Caspase-3; assay: inhibition of recombinant caspase-3 activity – biochemical, luminescence, set 2, selectivity assay for SENP protease inhibitor project, SAR follow-up (AID 588599); assay type: functional
[11] = NIH3T3 cell viability loss – ATP luminescence, mouse fibroblasts, counter-screen, dose response (AID 2010); assay type: functional, cell-based;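 note: cells exposed to compound for about 90 hours before reading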
Aurora kinase A = Aurora kinase A (Homo sapiens, UniProt O14965); assay type: functional;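 note: value from the Navigating the Kinome kinase panel profiling, panel entry STK6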
Aurora kinase B = Aurora kinase B (Homo sapiens, UniProt Q96GD4); assay type: functional
Aurora kinase B, sequence (Q96GD4 whole entry): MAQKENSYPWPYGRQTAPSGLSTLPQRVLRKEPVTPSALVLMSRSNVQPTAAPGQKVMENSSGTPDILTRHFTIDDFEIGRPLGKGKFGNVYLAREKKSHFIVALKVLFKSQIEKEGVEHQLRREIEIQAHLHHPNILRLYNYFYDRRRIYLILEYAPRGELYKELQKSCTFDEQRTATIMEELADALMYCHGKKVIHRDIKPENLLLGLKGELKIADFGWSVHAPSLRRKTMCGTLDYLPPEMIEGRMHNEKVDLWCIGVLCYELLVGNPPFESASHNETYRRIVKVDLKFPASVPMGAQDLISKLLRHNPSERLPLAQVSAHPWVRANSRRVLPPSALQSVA

Aurora kinase A, sequence (O14965 whole entry): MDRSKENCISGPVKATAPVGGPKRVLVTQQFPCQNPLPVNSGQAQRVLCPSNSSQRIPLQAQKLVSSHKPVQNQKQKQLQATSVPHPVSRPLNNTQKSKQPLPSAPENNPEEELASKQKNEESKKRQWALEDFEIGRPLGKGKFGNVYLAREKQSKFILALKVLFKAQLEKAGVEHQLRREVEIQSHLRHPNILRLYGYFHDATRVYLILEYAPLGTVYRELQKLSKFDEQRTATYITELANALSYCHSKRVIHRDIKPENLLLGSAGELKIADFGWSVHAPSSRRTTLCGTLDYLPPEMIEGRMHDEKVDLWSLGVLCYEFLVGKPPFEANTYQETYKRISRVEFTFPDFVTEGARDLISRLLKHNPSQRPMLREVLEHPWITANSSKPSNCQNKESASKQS

SMILES: COC(=O)C[C@](O)(CCC(C)(C)O)C(=O)O[C@@H]1C(OC)=C[C@]23CCCN2CCc2cc4c(cc2[C@H]13)OCO4 [HARRINGTONINE]
GI50 (SN12K1): 0.0661 µM (active) | GI50 (P388/ADR): 0.738 µM (active) | GI50 (P388): 0.0252 µM (active)

SMILES: O=C(Nc1nc2ccc(Cl)cc2s1)C1CC1
IC50 [1]: > 99 µM (inactive) | IC50 [6]: 24.6 µM (active) | IC50 [7]: 5.97 µM (active) | IC50 [8]: 7.46 µM (active) | IC50 [2]: > 99 µM (inactive) | EC50 [9]: 0.119 µM (active) | IC50 [3]: 5.9 µM (active) | IC50 (Caspase-3 [10]): 28.9 µM (active) | EC50 [11]: > 16 µM (not active) | IC50 (Caspase-3 [4]): 25 µM (active)

SMILES: COC1OCC(O)C(NC(=O)N(C)N=O)C1O (configuration not stated)
GI50 (SN12K1): > 100 µM (inactive) | GI50 (P388/ADR): > 100 µM (inactive) | GI50 (P388): > 100 µM (inactive)

Further lines, with some results ahead:

IC50 [1]: 0.742 µM (active) | IC50 [3]: 0.854 µM (active) | IC50 (Caspase-3 [4]): 0.541 µM (active)
SMILES: CCCCc1ccc2nc(NC(=O)c3sccc3C)sc2c1
IC50 [2]: 0.672 µM (active)

EC50 [5]: > 100 µM (inactive)
SMILES: CC(C)(C)c1ccc(C(=O)NC(CCc2ccccc2)CC(=O)O)cc1 (configuration not stated)

Ki (Aurora kinase A): 0.00398 µM (active) | Ki (Aurora kinase B): 0.00316 µM (active)
SMILES: COCCOC1CCC(n2nc(-c3ccc(Nc4nc5cc(Br)cc(C)c5o4)cc3)c3c(N)ncnc32)CC1 (configuration not stated)

IC50 [6]: > 99 µM (inactive) | IC50 [8]: > 99 µM (inactive) | IC50 (Caspase-3 [10]): > 99 µM (inactive)
SMILES: Cc1ccc(N2CC(NC(=O)C(=O)c3c(C)[nH]c4ccccc34)CC2=O)cc1 (configuration not stated)
IC50 [7]: > 99 µM (inactive)
